Legend:
Experiment in all cases: relative viability (nuclei count vs DMSO), 5 days (fraction); higher = more cells survive
Dovitinib + Tozasertib = compound: CN1CCN(c2ccc3nc(-c4c(N)c5c(F)cccc5[nH]c4=O)[nH]c3c2)CC1 [Dovitinib] + Cc1cc(Nc2cc(N3CCN(C)CC3)nc(Sc3ccc(NC(=O)C4CC4)cc3)n2)n[nH]1 [Tozasertib] (partner 0.1 µM)
Method in brief: (§1)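 Values are medians from duplicate plates. Each reflects relative viability, defined as the nuclei count of treated wells over that of vehicle wells. Lung cancer cell lines in 1536-well plates were pin-tool dosed one day after seeding with one drug alone or with a fixed anchor-drug dose plus five library-drug doses (not always all listed) in √10 steps, then fixed, stained and imaged at 4× after 5 days.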

Dovitinib + AZD7762 = compound: CN1CCN(c2ccc3nc(-c4c(N)c5c(F)cccc5[nH]c4=O)[nH]c3c2)CC1 [Dovitinib] + NC(=O)Nc1cc(-c2cccc(F)c2)sc1C(=O)N[C@H]1CCCNC1 [AZD7762] (partner 0.2 µM)
Method in brief: as §1

Dovitinib + Trametinib = compound: CN1CCN(c2ccc3nc(-c4c(N)c5c(F)cccc5[nH]c4=O)[nH]c3c2)CC1 [Dovitinib] + CC(=O)Nc1cccc(-n2c(=O)n(C3CC3)c(=O)c3c(Nc4ccc(I)cc4F)n(C)c(=O)c(C)c32)c1 [Trametinib] (partner 0.02 µM)
Method in brief: as §1

Dovitinib = compound: CN1CCN(c2ccc3nc(-c4c(N)c5c(F)cccc5[nH]c4=O)[nH]c3c2)CC1 [Dovitinib]
Method in brief: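 Following overnight incubation at 37 °C, lung cancer cell lines in 1536-well plates were pinned with five library-drug doses (not always all listed) in √10 steps on vehicle-anchored plates. The cells then spent 5 days without medium change before a combined fix, permeabilisation and Hoechst stain, 4× imaging and MetaXpress nuclear counts. Viability is the treated-to-vehicle ratio of nuclei, taken as the median across plates. Only plates with control CV below 25% and at least one doubling passed.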

Cell Line	relative viability (Dovitinib + Tozasertib; first compound 0.02 µM)	relative viability (Dovitinib + Tozasertib; first compound 0.06325 µM)	relative viability (Dovitinib + Tozasertib; first compound 0.2 µM)	relative viability (Dovitinib + Tozasertib; first compound 0.6325 µM)	relative viability (Dovitinib + Tozasertib; first compound 2 µM)	relative viability (Dovitinib + AZD7762; first compound 0.02 µM)	relative viability (Dovitinib + AZD7762; first compound 0.06325 µM)	relative viability (Dovitinib + AZD7762; first compound 0.2 µM)	relative viability (Dovitinib + AZD7762; first compound 0.6325 µM)	relative viability (Dovitinib + AZD7762; first compound 2 µM)	relative viability (Dovitinib + Trametinib; first compound 0.02 µM)	relative viability (Dovitinib + Trametinib; first compound 0.06325 µM)	relative viability (Dovitinib + Trametinib; first compound 0.2 µM)	relative viability (Dovitinib + Trametinib; first compound 0.6325 µM)	relative viability (Dovitinib + Trametinib; first compound 2 µM)	relative viability (Dovitinib; 0.02 µM)	relative viability (Dovitinib; 0.06325 µM)	relative viability (Dovitinib; 0.2 µM)	relative viability (Dovitinib; 0.6325 µM)	relative viability (Dovitinib; 2 µM)
LK-2	0.175	0.182	0.182	0.181	0.149	0.402	0.549	0.308	0.408	0.274	0.758	0.751	0.784	0.809	0.585	0.944	0.974	0.895	0.975	0.847
NCI-H1993	0.58	0.546	0.601	0.636	0.582	1.01	0.724	0.887	0.985	0.849	0.517	0.481	0.489	0.58	0.502	1.21	0.863	1	0.988	1.07
NCI-H838	0.236	0.263	0.282	0.295	0.252	0.864	0.979	0.912	0.986	0.96	0.514	0.499	0.487	0.477	0.543	0.935	1	1.01	0.95	0.966
NCI-H1437	0.418	0.392	0.435	0.392	0.419	1.19	1.09	1.22	1.11	1.09	0.564	0.475	0.521	0.519	0.462	0.973	1.03	0.971	1.04	1.02
NCI-H2170	0.658	0.856	0.733	0.787	0.787	0.773	1.02	0.928	0.857	0.883	0.928	0.92	1.04	0.866	0.945	0.868	1.01	1.04	0.982	0.946
NCI-H1648	0.491	0.532	0.562	0.402	0.564	0.497	0.717	0.661	0.701	0.634	0.581	0.413	0.471	0.477	0.527	0.914	0.805	1.12	0.908	0.789
LCLC-103H	0.539	0.414	0.477	0.415	0.53	0.777	0.802	0.784	0.704	0.699	0.683	0.723	0.622	0.556	0.667	0.975	0.931	1.03	1.06	0.992
NCI-H441	0.668	0.599	0.559	0.626	0.575	1.17	0.977	1.22	1.2	1.27	0.486	0.477	0.434	0.441	0.49	1.08	1.11	1.04	1.07	1.06
BEN	0.512	0.526	0.591	0.635	0.419	0.692	0.697	0.637	0.877	0.597	0.976	0.888	1.01	1.05	1.04	0.987	0.959	1.14	1.12	0.964
LC-2-ad	0.563	0.487	0.465	0.369	0.498	0.842	0.835	0.819	0.883	0.88	0.92	0.903	0.873	0.927	0.815	0.977	0.966	0.965	0.983	0.98
RERF-LC-KJ	0.556	0.369	0.516	0.518	0.511	1.05	0.916	1.03	1.02	0.868	0.928	0.837	1.01	0.869	0.864	0.964	1.01	1.07	0.95	0.954
SW 900	0.459	0.537	0.533	0.582	0.689	0.591	0.62	0.505	0.681	0.615	0.811	0.763	1.06	0.771	1.08	1.11	0.853	1.11	1.04	0.952
NCI-H1915	0.435	0.445	0.46	0.451	0.453	0.609	0.708	0.705	0.614	0.693	0.275	0.282	0.306	0.283	0.319	0.937	0.975	1	1.01	0.981
NCI-H596	0.985	0.982	0.963	0.838	0.754	1.17	1.09	1	1.03	1.1	0.701	0.844	0.764	0.694	0.777	0.965	0.957	1	1.12	0.932
NCI-H2126	0.833	0.807	0.951	0.794	0.833	0.982	1.04	1.03	1.04	1	0.576	0.56	0.569	0.598	0.522	1.01	0.966	1.01	0.983	1.05
LXF-289	0.214	0.228	0.195	0.189	0.171	1.07	1.06	1.07	1.13	1.05	0.619	0.716	0.695	0.612	0.662	0.938	1.01	0.999	1.02	0.979

Cell Line	relative viability (Dovitinib + Tozasertib; first compound 0.02 µM)	relative viability (Dovitinib + Tozasertib; first compound 0.06325 µM)	relative viability (Dovitinib + Tozasertib; first compound 0.2 µM)	relative viability (Dovitinib + Tozasertib; first compound 0.6325 µM)	relative viability (Dovitinib + Tozasertib; first compound 2 µM)	relative viability (Dovitinib + AZD7762; first compound 0.02 µM)	relative viability (Dovitinib + AZD7762; first compound 0.06325 µM)	relative viability (Dovitinib + AZD7762; first compound 0.2 µM)	relative viability (Dovitinib + AZD7762; first compound 0.6325 µM)	relative viability (Dovitinib + AZD7762; first compound 2 µM)	relative viability (Dovitinib + Trametinib; first compound 0.02 µM)	relative viability (Dovitinib + Trametinib; first compound 0.06325 µM)	relative viability (Dovitinib + Trametinib; first compound 0.2 µM)	relative viability (Dovitinib + Trametinib; first compound 0.6325 µM)	relative viability (Dovitinib + Trametinib; first compound 2 µM)	relative viability (Dovitinib; 0.02 µM)	relative viability (Dovitinib; 0.06325 µM)	relative viability (Dovitinib; 0.2 µM)	relative viability (Dovitinib; 0.6325 µM)	relative viability (Dovitinib; 2 µM)
HCC-44	0.724	1.03	0.99	0.884	0.938	0.979	0.97	1.03	0.955	0.975	1.06	1.07	1.1	1.07	1.02	0.979	0.98	0.991	1	1.03
PC-14	0.542	0.649	0.684	0.644	0.643	0.309	0.343	0.385	0.351	0.357	0.743	0.795	0.822	0.696	0.86	1	1.01	1.03	1.03	1.04
HOP-62	0.316	0.401	0.346	0.384	0.424	0.364	0.534	0.697	0.62	0.551	0.368	0.386	0.397	0.392	0.352	0.907	1.03	1.03	1.06	1.04
NCI-H358	0.104	0.101	0.115	0.11	0.106	0.483	0.518	0.444	0.544	0.517	0.156	0.144	0.154	0.19	0.143	0.9	0.995	0.918	0.989	0.907
NCI-H1666	0.582	0.651	0.581	0.525	0.625	0.876	0.859	0.882	0.855	0.812	1.02	0.881	0.939	0.945	0.855	1.2	1.09	1.09	1.01	1.01
NCI-H1355	0.567	0.566	0.618	0.54	0.596	0.695	0.745	0.746	0.703	0.727	0.461	0.405	0.475	0.45	0.492	1.04	0.931	1.04	0.989	1.07
HCC-827	0.44	0.455	0.441	0.43	0.469	0.203	0.213	0.244	0.237	0.212	0.553	0.553	0.565	0.603	0.57	1.05	1.01	1.05	1.1	1.03
HARA	0.117	0.11	0.107	0.102	0.112	0.334	0.257	0.381	0.211	0.315	0.89	0.924	0.484	0.827	0.878	1.29	0.948	1	1.25	1.01
HCC-366	0.0642	0.143	0.14	0.127	0.111	0.155	0.301	0.297	0.239	0.357	0.405	0.379	0.338	0.323	0.371	0.989	0.978	0.993	0.973	0.982
NCI-H322M	0.482	0.497	0.523	0.436	0.493	0.555	0.738	0.725	0.541	0.398	0.557	0.506	0.507	0.496	0.543	0.885	0.926	0.918	0.977	0.97
NCI-H2347	0.523	0.478	0.503	0.619	0.62	0.701	0.606	0.864	0.774	0.754	0.284	0.289	0.286	0.277	0.271	1.04	1.02	1.06	1.08	1.04
NCI-H1975	0.72	0.754	0.763	0.689	0.685	0.708	0.577	0.728	0.738	0.653	0.404	0.405	0.329	0.382	0.388	0.916	0.966	1.03	0.976	0.947
NCI-H522	0.549	0.583	0.536	0.54	0.665	0.704	0.81	0.878	0.813	0.974	0.731	0.656	0.829	0.687	0.933	1	1.09	1.22	1.03	0.924
A-427	0.222	0.201	0.203	0.162	0.225	0.767	0.733	0.674	0.665	0.697	0.724	0.705	0.709	0.768	0.72	0.918	0.901	1.06	1.06	1.05
LCLC-97TM1	0.243	0.207	0.231	0.195	0.235	0.247	0.239	0.298	0.395	0.315	0.267	0.204	0.199	0.196	0.203	1.07	0.785	1.01	1	0.979
